Results published in the supplement of paper PMC10307832.

Columns and labels:
Experiment in all cases: relative viability (nuclei count vs DMSO), 5 days (fraction); higher = more cells survive
Dasatinib + AZD7762 = compound: Cc1nc(Nc2ncc(C(=O)Nc3c(C)cccc3Cl)s2)cc(N2CCN(CCO)CC2)n1 [Dasatinib] + NC(=O)Nc1cc(-c2cccc(F)c2)sc1C(=O)N[C@H]1CCCNC1 [AZD7762] (partner 0.2 µM)
Summary of the method: (§1)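 Dosing by pin tool came one day after lung cancer cell lines were seeded in 1536-well plates, using either one drug or a fixed anchor-drug dose plus five library-drug doses (not always all listed) in √10 steps. After 5 days, nuclei were counted on 4× images. Relative viability is treated-well nuclei count divided by vehicle-well nuclei count, and values are medians of duplicate plates.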

ALW-II-49-7 + Olaparib = compound: Cc1ccc(C(=O)Nc2cccc(C(F)(F)F)c2)cc1Nc1cncc(C(N)=O)c1 [ALW-II-49-7] + O=C(c1cc(Cc2n[nH]c(=O)c3ccccc23)ccc1F)N1CCN(C(=O)C2CC2)CC1 [Olaparib] (partner 8 µM)
Summary of the method: as §1

XMD13-2 + Luminespib = compound: C1CC1C(=O)NC2=NNC3=C2C=CC(=C3)C4=CC(=CC=C4)C(=O)NC5CC5 [XMD13-2] + CCNC(=O)c1noc(-c2cc(C(C)C)c(O)cc2O)c1-c1ccc(CN2CCOCC2)cc1 [Luminespib] (partner 0.01 µM)
Summary of the method: as §1

XMD13-2 + Pictilisib = compound: C1CC1C(=O)NC2=NNC3=C2C=CC(=C3)C4=CC(=CC=C4)C(=O)NC5CC5 [XMD13-2] + CS(=O)(=O)N1CCN(Cc2cc3nc(-c4cccc5[nH]ncc45)nc(N4CCOCC4)c3s2)CC1 [Pictilisib] (partner 1 µM)
Summary of the method: as §1

Cell Line	relative viability (Dasatinib + AZD7762; first compound 0.005 µM)	relative viability (Dasatinib + AZD7762; first compound 0.01581 µM)	relative viability (Dasatinib + AZD7762; first compound 0.05 µM)	relative viability (Dasatinib + AZD7762; first compound 0.1581 µM)	relative viability (Dasatinib + AZD7762; first compound 0.5 µM)	relative viability (ALW-II-49-7 + Olaparib; first compound 0.08 µM)	relative viability (ALW-II-49-7 + Olaparib; first compound 0.253 µM)	relative viability (ALW-II-49-7 + Olaparib; first compound 0.8 µM)	relative viability (ALW-II-49-7 + Olaparib; first compound 2.53 µM)	relative viability (ALW-II-49-7 + Olaparib; first compound 8 µM)	relative viability (XMD13-2 + Luminespib; first compound 0.05 µM)	relative viability (XMD13-2 + Luminespib; first compound 0.1581 µM)	relative viability (XMD13-2 + Luminespib; first compound 0.5 µM)	relative viability (XMD13-2 + Luminespib; first compound 1.581 µM)	relative viability (XMD13-2 + Luminespib; first compound 5 µM)	relative viability (XMD13-2 + Pictilisib; first compound 0.05 µM)	relative viability (XMD13-2 + Pictilisib; first compound 0.1581 µM)	relative viability (XMD13-2 + Pictilisib; first compound 0.5 µM)	relative viability (XMD13-2 + Pictilisib; first compound 1.581 µM)	relative viability (XMD13-2 + Pictilisib; first compound 5 µM)
NCI-H1666	0.852	0.685	0.762	0.622	0.411	0.692	0.798	0.684	0.738	0.728	1	0.992	0.965	1.03	1.01	0.566	0.479	0.59	0.349	0.492
A-427	0.72	0.745	0.536	0.52	0.519	0.673	0.831	0.81	0.672	0.71	1.08	0.846	0.94	0.945	0.849	0.871	0.732	0.797	0.537	0.558
NCI-H1651	0.475	0.384	0.382	0.374	0.333	0.15	0.176	0.176	0.169	0.171	0.969	0.916	0.714	0.773	0.886	0.819	0.477	0.661	0.64	0.548
NCI-H1793	0.425	0.369	0.247	0.229	0.273	0.977	0.834	0.785	0.911	0.753	0.277		0.168	0.172	0.175	0.288	0.442	0.373	0.403	0.192
201T	0.848	0.635	0.493	0.455	0.302	0.846	0.844	0.844	0.873	0.69	1.03	1.03	1.11	1.01	1.12	0.747	0.72	0.639	0.673	0.719
NCI-H460	0.523	0.546	0.542	0.472	0.328	0.435	0.704	0.414	0.143	0.325	0.0335	0.0365	0.0372	0.0316	0.0324	0.532	0.324	0.363	0.4	0.36
NCI-H596	0.945	0.828	0.929	0.74	0.553	0.523	0.616	0.774	0.599	0.757	0.987	1	0.909	0.903	1.2	0.447	0.406	0.351	0.384	0.411
HARA	0.31	0.129	0.298	0.291	0.184	0.556	0.584	0.551	0.626	1.07	0.995	0.654	0.779	0.772	0.707	0.372	0.394	0.493	0.314	0.23
